Structures are written as SMILES. Some results are limits rather than exact numbers.

For 33 compounds, melting point results are on record in a melting point compilation (Tetko et al.; mined from patent text by program, amines drawn as free bases though some values may be those of a salt).

`CC(C)On1c(-c2ccccc2)nc2c(N)nc3ccccc3c21`: the melting point is 188 to 191 °C.
In the case of `CN(C)C(=NS(=O)(=O)c1ccc(Cl)cc1)N1CC(c2ccccc2)C(c2ccc(Cl)cc2)=N1` (stereo not drawn) it was 182 °C; in that of `CS(=O)c1ccc(C2CCCC(=O)N2c2ccc(Cl)cc2)cc1` (stereo not drawn), 142 to 165 °C; in that of `O=C(CCc1ccccc1)CN1C(=O)CC1S(=O)CCO` (stereo not drawn), 64 to 65 °C.
As to `O=c1[nH]c2cc3ccccc3cc2nc1-c1cc(O)c(O)c([N+](=O)[O-])c1`, the melting point is greater than 300 °C.
Then `CCOC(=O)c1c(C)cc2c(c1C)c(=O)n(-c1ccccc1Cl)c(=O)n2CC(=O)N(CC)CC`, with 228 to 229 °C.
`Cc1cc(NCCNC(=O)CCc2cc(C(C)(C)C)c(O)c(C(C)(C)C)c2)nc(Cl)c1C#N` showed a melting point of 162 to 165 °C.
In the case of `O=CNC1=NN(c2ccc(F)cc2)C(c2ccccc2)C1` (stereo not drawn) it was 158 to 160 °C.
The compound `COc1cc(C(=O)NS(=O)(=O)c2ccccc2C)ccc1Cc1c(Cl)n(C)c2ccc(CC3CCN(C)C3=O)cc12` (stereo not drawn) gave a melting point of 129 to 133 °C.
In the case of `CC(C)CCCSC1c2ccccc2C(=O)N1c1ccc2ccc(Cl)nc2n1` (stereo not drawn), the melting point is 141 °C.
Then `COCCO[C@@H]1c2ccn3c(Cl)c(C)nc3c2N(C(C)=O)[C@H](c2ccccc2)[C@H]1OC(=O)C(C)(C)C`, with 145 to 147 °C; and `COc1cccc(NC(=O)CC23CC4CC(CC(C4)C2)C3)c1C`, with 173 to 175 °C; and `CCOc1cc(-c2cc(C(F)(F)F)n3ncc(-c4cc(C)nc(C)c4)c3n2)ccc1C(F)(F)F`, with 257 °C.
`COc1cc(OCc2ccccn2)c(C=O)cc1-c1cccs1`: the melting point lay in the range of 93 to 94 °C.
The compound `CCNC(=O)N(O)CC#Cc1cccc(C2=N[C@H](c3ccccc3)CO2)c1` gave a melting point of 141 to 143 °C.
In the case of `OCc1ccc2c(n1)C(CNCCCCCCOCCC#Cc1ccc(F)cc1)OC(c1ccccc1)O2` (stereo not drawn), the melting point lay within 83 to 85 °C.
Compound `OCc1cccc(/C=C/c2ccc3ccc(Cl)cc3n2)c1` displayed a melting point of 141 °C.
Compound `CCOC(=O)CNCc1cccc(-c2c(CC(=O)Nc3ccc(F)cc3C(F)(F)F)c(=O)oc3cc(Cl)c(C)cc23)c1` had a melting point of 153 to 155 °C.
As for `c1ccc(CN2CCC(c3nc(-c4ccc(-c5ccccc5)cc4)c[nH]3)CC2)cc1`, the melting point lay within 110 to 112 °C.
Then `O=S(=O)(NCCCCC1Cc2ccccc2C1)c1ccc(Cl)cc1`, with 77 °C.
In the case of `CN1CCC(OC(c2cccc(C#CCCCN)c2)c2nc3ccccc3[nH]2)CC1` (stereo not drawn) it was 82 °C; in that of `CC(=O)N1Cc2cccc3c2c(cn3C)C1`, 125 to 126 °C.
Then `Nc1ccc(-c2nc3cc(OCc4ccccc4)ccc3s2)c(Cl)c1`, with 119 to 121 °C; and `CC(=O)ONC(=N)c1ccc(-c2nc(C)c(C(=O)NC(C)C(O)(Cn3cncn3)c3ccc(F)cc3F)s2)cc1` (stereo not drawn), with 146 to 147 °C.
Take `CCOc1nn(Cc2ccc(OCc3cn4c(Cl)cccc4n3)cc2)cc1CCC(=O)O`: the melting point is 153 to 154 °C.
As for `CC1=CC(OC(=O)c2ccc(N)c(N)c2)C(O)C(C)(C)CC1=O` (stereo not drawn), the melting point lay in the range of 136 to 137 °C.
Then `CCCCCCCCCCCCCCCCOC(=O)c1cnc(C(=O)OCCCCCCCCCCCCCCCC)c2ccccc12`, with 80.7 to 81.4 °C; and `CCOc1cc(C)ccc1C1CCN(CCCCNC(=O)c2ccc(C=Cc3ccc(C(F)(F)F)cc3)cc2)CC1`, with 210 °C.
In the case of `CC(=NCCO)c1ccccc1NC(=O)C(Cl)(Cl)Cl` it was 182 °C; in that of `O=C(CCCl)Nc1ccc(F)c(Cl)c1`, 94 °C; in that of `CC(C)NC(=S)N1CCc2[nH]cnc2C1c1ccccc1` (stereo not drawn), 198 °C.
In the case of `Cc1ccc(-n2c(-c3sc(Nc4ccccc4)nc3C)nc3ccccc3c2=O)cc1` it was 256 to 257 °C; in that of `CC(=O)C(Cc1cccc(Br)c1)NC(=O)c1ccc(C)cc1` (stereo not drawn), 106 to 107 °C.
